According to PMC8791944, “GLUT3 inhibitor discovery through in silico ligand screening and in vivo validation in eukaryotic expression systems” (Scientific Reports, 2022):
Values joined by “and” are separate entries in the source; they are usually repeats but may differ in a detail not shown here. Identical values can stand only once. “Also recorded” adds a separate entry of the source. Like-named read-outs stand apart in the source and are kept apart here.

Legend:
GLUT4 = target: T1, GLUT4 (Homo sapiens, UniProt P14672); test: Glucose transport assay, GLUT4 expressed in hxt^0 yeast cells SDY.022; format: cell-based; details: for IC50: hxt^0 yeast cells, 5 mM glucose, read-out: IC50 for GLUT4 transport inhibition; for Potency for GLUT4 relative to GLUT3 (higher for GLUT4): IC50 GLUT4 versus IC50 GLUT3
T1 construct: expressed in transfected cells; host or cells: Saccharomyces cerevisiae hxt0 strain SDY.022 (EBY.S7 Δerg4)
T1 sequence (P14672 1-509): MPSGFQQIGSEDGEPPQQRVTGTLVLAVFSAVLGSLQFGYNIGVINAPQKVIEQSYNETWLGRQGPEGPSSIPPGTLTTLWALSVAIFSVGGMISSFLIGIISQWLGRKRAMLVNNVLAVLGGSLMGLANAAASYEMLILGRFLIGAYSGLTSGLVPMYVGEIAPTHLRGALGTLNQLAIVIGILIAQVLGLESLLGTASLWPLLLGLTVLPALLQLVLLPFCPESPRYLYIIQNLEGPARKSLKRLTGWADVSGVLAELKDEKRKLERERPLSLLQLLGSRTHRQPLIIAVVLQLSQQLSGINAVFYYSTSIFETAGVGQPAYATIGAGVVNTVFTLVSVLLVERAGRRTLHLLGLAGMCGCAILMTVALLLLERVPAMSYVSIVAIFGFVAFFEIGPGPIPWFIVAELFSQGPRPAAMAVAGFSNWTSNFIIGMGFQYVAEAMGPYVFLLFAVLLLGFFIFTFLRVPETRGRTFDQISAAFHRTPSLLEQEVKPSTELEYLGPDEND
Excerpt: (§1) The most studied GLUTs are Class 1 GLUTs (GLUT1-4) and a Class 2 GLUT, GLUT5 (a fructose-only transporter). GLUT3 sequence homology and identity is 79% and 64%, 71% and 52%, 74% and 57%, and 60% and 38% with GLUT1, GLUT2, GLUT4, and GLUT5, respectively. The hxt^0 yeast cell systems expressing functional GLUT1-4[65],[69] and GLUT5[66] allow us to determine the in vivo transport activity (substrate uptake by a GLUT into whole cells) for individual GLUTs and establish GLUT3 inhibitor selectivity for these transporters. The transport assay was performed as described for GLUT3, but at the substrate concentrations that correspond to the KM for each GLUT (i.e., 5 mM glucose for GLUT1 and GLUT4[65], 15 mM glucose for GLUT2∆loopS_Q455R[63], and 10 mM fructose for GLUT5S72Y[66]).
(§2) The transport activity was assayed as the substrate uptake in hexose transporter-deficient yeast cells expressing functional GLUT1[65], GLUT2[69], GLUT4[65], or GLUT5[66]. Substrate final concentration in the assay matched the corresponding substrate KM and was 5 mM glucose for GLUT1 and GLUT4, 15 mM glucose for GLUT2∆loopS_Q455R, and 10 mM fructose for GLUT5S72Y. Transport assay was initiated by the addition of C^14-labeled substrate and stopped after 10 min (see “Materials and methods” for details). […] Standard deviations for experimental points come from at least three independent measurements.
(§3) The plasmids containing functional constructs of GLUT1-5 were transformed in the corresponding hxt^0 strains[65],[66],[73] (EBY.VW4000 for GLUT5S72Y, EBY.S7 for GLUT1, GLUT2∆loopS_Q455R, GLUT3 and GLUT3S66Y, and SDY.022 for GLUT4) and grown on 2% (w/v) agar plates of the respective media supplemented with 1% (w/v) maltose. An initial culture of ~ 10 ml was started with a few colonies and grown for 2–3 days if the media was SC-uracil with 1% (w/v) maltose (GLUT1, GLUT3, GLUT4) or 1–2 days if the media was YEP with 1% (w/v) maltose and 100 µg/ml geneticin G418 (GLUT2∆loopS_Q455R and GLUT5S72Y). Cells were washed once in the corresponding media in which maltose was substituted with 0.1–2% hexose substrate for the expressing GLUT (i.e., SC-uracil, 2% (w/v) glucose for GLUT1; SC-uracil, 0.2% (w/v/) glucose for GLUT3 and GLUT4; YEP, 0.2% (w/v) glucose, 100 µg/ml geneticin G418 for GLUT2∆loopS_Q455R, and YEP, 2% (w/v) fructose for GLUT5 S72Y). Then, cells were transferred in the same media so that OD600nm ~ 0.5 and grown further for 1–2 days.
(§4) For transport activity assay, cells in the hexose media were centrifuged (1000×g, 5 min, room temperature), washed once with PBS buffer (10 mM Na2HPO4, 1.8 mM KH2PO4, 2.7 mM KCl, 137 mM NaCl, pH 7.4), and resuspended in PBS buffer at an OD600nm ~ 10; each assay contained 100 µl of this cell solution. Transport activity assay was started by adding C^14-hexose at a substrate concentration corresponding to the respective KM (5 mM glucose for GLUT1 or GLUT4, 3 mM glucose for GLUT3 or 1.5 mM glucose for GLUT3S66Y, 15 mM glucose for GLUT2∆loopS_Q455R, and 10 mM fructose for GLUT5S72Y); for determining the glucose KM in GLUT3 and GLUT3S66Y, substrate concentrations were varied accordingly. […] The filtration membranes were transferred into scintillation vials with 10 ml of Scintillation Solution (BioSafeII; Research Products International, Mount Prospect, IL, USA), and vortexed briefly. The radioactivity was determined with a scintillation counter (Tri-carb 2900TR, Perkin Elmer, USA).

GLUT2∆loopS_Q455R = target: T2, GLUT2∆loopS_Q455R (Homo sapiens, UniProt P11168, Q455R, form not given); test: Glucose transport assay, GLUT2∆loopS_Q455R expressed in hxt^0 yeast cells EBY.S7; format: cell-based
T2 sequence (P11168 1-524 Q455R): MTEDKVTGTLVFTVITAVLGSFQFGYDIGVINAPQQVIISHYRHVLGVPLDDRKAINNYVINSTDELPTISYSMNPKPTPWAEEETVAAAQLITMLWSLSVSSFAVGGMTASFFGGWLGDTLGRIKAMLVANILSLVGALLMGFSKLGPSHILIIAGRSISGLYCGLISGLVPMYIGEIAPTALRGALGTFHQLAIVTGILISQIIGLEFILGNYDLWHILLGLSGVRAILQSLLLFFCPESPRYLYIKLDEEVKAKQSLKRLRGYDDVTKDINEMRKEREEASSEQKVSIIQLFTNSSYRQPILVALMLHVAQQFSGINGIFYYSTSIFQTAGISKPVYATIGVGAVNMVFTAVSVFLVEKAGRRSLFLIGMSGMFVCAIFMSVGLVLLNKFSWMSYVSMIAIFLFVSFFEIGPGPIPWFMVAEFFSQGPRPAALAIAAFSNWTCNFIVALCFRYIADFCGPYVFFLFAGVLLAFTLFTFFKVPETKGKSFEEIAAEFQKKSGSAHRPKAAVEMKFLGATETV
Excerpt: as §1, §2, §3, §4

[1] = GLUT2∆loopS_Q455R in hxt^0 yeast cells, 15 mM glucose; read-out: IC50 for GLUT2 transport inhibition

Question: How did the IC50 (GLUT4) turn out when CC(=O)Nc1ccc(S(=O)(=O)Nc2ccc(Nc3cc(N(C)C)nc(C)n3)cc2)cc1 [G3iA, N-(4-{[(4-{[6-(dimethylamino)-2-methylpyrimidin-4-yl]amino}phenyl)amino]sulfonyl}phenyl)acetamide] was run?
Answer: > 50 µM

Question: What about the IC50 (GLUT2∆loopS_Q455R; [1]) of the same compound?
Answer: 29.4 ± 6.3 µM

Question: And the “Potency for GLUT2 relative to GLUT3 (IC50 ratio, weaker for GLUT2)” value (GLUT2∆loopS_Q455R; IC50 GLUT2 versus IC50 GLUT3)?
Answer: ~ fourfold

Question: For COc1ccccc1-n1c(/C=C/c2ccc(O)cc2)nc2ccc(Br)cc2c1=O [G3iB, 6-bromo-2-[(E)-2-(4-hydroxyphenyl)ethenyl]-3-(2-methoxyphenyl)quinazolin-4(3H)-one], which IC50 (GLUT4) is on record?
Answer: 12.7 ± 2.3 µM

Question: And the IC50 (GLUT2∆loopS_Q455R; read-out: IC50 for GLUT2 transport inhibition; GLUT2∆loopS_Q455R in hxt^0 yeast cells, 15 mM glucose)?
Answer: > 50 µM

Question: Cc1cccnc1OC1CCN(c2cc(N3CCCC3CO)ncn2)CC1 (centres unmarked) [G3iC] was tested. Which IC50 (GLUT4) did it give?
Answer: 25.6 ± 6.6 µM

Question: And the IC50 (GLUT2∆loopS_Q455R; [1])?
Answer: > 50 µM

Question: With Cc1cc(NC(=O)CCC2Cc3ccccc3NC2=O)nc(-c2ccccc2)n1 (centres unmarked) [G3iD] as the compound, how does the Ki (GLUT4; 2.5, 5 and 10 mM glucose, 0, 4 and 8 µM G3iD, read-out: Ki for GLUT4 inhibition (Dixon plot)) read?
Answer: 2.65 µM and ~2.7 µM

Question: And the “Inhibition mode in GLUT4” value (GLUT4; Dixon plot, versus glucose)?
Answer: competitive with glucose; also recorded: competitive inhibitor; also recorded: competitive inhibition mode

Question: And the “Potency for GLUT4 relative to GLUT3 (higher for GLUT4)” value (GLUT4)?
Answer: ~ fivefold

Question: What about the IC50 (GLUT4) of the same compound?
Answer: 3.88 ± 0.57 µM

Question: What about the IC50 (GLUT2∆loopS_Q455R; [1]) of the same compound?
Answer: 40 ± 3.7 µM

Question: Which results are given for O=C(Nc1cccc(Cl)c1)c1cccc(NC(=O)c2cccc([N+](=O)[O-])c2)c1 [G3iE, N-{3-[(3-chloroanilino)carbonyl]phenyl}-3-nitrobenzamide]?
Answer: IC50 (GLUT4): 12.4 ± 2.5 µM; IC50 (GLUT2∆loopS_Q455R; [1]): > 50 µM

Question: How did the “Potency for GLUT4 relative to GLUT3 (higher for GLUT4)” value (GLUT4) turn out when Cc1ccccc1CN(Cc1nnc(C(C)(C)C)o1)c1ccc2nc(O)[nH]c2c1 [G3iF] was run?
Answer: ~ fivefold

Question: What about the IC50 (GLUT4) of the same compound?
Answer: 6.94 ± 1.37 µM

Question: What about the IC50 (GLUT2∆loopS_Q455R; [1]) of the same compound?
Answer: 24.7 ± 8.4 µM
